According to patent US20100292231A1, “Indazole Compounds for Treating Inflammatory Disorders, Demyelinating Disorders and Cancers” (priority 2007, published 2010):
Read-outs that look alike come from different tables or passages of the source.

What was measured:
Test in all cases: SelectScreen kinase specificity survey
Type in all cases: biochemical
[1] = target: T1, MAPK3 (ERK1) (Homo sapiens, UniProt P27361); details: estimated, abridged dose response curve, read-out: Kinase inhibitory activity EC50
T1 construct: purchased Invitrogen, Inc. (SelectScreen service)
Procedure, shortened: (§1)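 EC50 values are estimates from an abridged dose-response curve fitted to a 4-parameter Hill sigmoid. Compound was titrated in 5 increments against each kinase, which was paired with a unique substrate and optical reporter in 100 micromolar ATP.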

[2] = target: T2, FGFR3 K650E (Homo sapiens, UniProt P22607, K650E); details: estimated, abridged dose response curve, read-out: Kinase inhibitory activity EC50
T2 construct: purchased Invitrogen (SelectScreen platform)
Procedure, shortened: as §1

[3] = target: T3, MAPK14 (p38 alpha) (Homo sapiens, UniProt Q16539); details: estimated, abridged dose response curve, read-out: Kinase inhibitory activity EC50
T3 construct: purchased Invitrogen, Inc. (SelectScreen service)
T3 sequence (Q16539 whole entry): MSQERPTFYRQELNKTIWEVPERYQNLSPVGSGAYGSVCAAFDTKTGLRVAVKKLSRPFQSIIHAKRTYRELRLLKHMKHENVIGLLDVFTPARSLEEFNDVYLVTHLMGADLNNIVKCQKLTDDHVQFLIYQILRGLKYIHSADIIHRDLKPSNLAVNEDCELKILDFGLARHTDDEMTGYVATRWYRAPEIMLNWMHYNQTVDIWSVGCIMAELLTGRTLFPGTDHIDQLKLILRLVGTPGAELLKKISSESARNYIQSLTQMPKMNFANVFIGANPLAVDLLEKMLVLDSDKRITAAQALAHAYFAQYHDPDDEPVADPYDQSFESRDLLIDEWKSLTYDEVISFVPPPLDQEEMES

[4] = target: T4, MARK1 (MARK) (Homo sapiens, UniProt Q9P0L2); details: estimated, abridged dose response curve, read-out: Kinase inhibitory activity EC50
T4 construct: purchased Invitrogen, Inc. (SelectScreen platform)
Procedure, shortened: as §1

[5] = target: T5, PRKCI (PKC iota) (Homo sapiens, UniProt P41743); details: estimated, abridged dose response curve, read-out: Kinase inhibitory activity EC50
T5 construct: purchased Invitrogen, Inc. (SelectScreen platform)
T5 sequence (P41743 whole entry): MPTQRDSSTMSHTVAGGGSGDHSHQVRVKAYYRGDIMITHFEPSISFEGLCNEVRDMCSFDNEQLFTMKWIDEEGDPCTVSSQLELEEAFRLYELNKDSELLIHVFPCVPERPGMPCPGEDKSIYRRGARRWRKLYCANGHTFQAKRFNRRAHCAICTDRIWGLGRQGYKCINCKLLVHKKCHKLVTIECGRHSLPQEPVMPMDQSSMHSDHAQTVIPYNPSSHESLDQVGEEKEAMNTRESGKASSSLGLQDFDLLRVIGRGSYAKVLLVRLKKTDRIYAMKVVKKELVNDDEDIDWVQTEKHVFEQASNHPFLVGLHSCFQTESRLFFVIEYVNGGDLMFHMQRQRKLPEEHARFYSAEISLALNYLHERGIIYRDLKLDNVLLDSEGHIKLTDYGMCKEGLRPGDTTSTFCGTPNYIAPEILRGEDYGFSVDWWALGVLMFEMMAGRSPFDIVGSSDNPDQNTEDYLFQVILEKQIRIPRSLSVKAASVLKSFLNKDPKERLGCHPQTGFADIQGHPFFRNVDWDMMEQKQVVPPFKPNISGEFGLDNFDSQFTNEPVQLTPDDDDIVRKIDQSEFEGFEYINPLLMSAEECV
Procedure, shortened: as §1

[6] = target: T6, STK25 (YSK1) (Homo sapiens, UniProt O00506); details: estimated, abridged dose response curve, read-out: Kinase inhibitory activity EC50
T6 construct: purchased Invitrogen (SelectScreen platform)
Procedure, shortened: as §1

[7] = target: T7, JAK2 JH1 JH2 V617F (Homo sapiens, UniProt O60674, V617F); details: estimated, abridged dose response curve, read-out: Kinase inhibitory activity EC50
T7 construct: JAK2 JH1 JH2 V617F; purchased Invitrogen (SelectScreen platform)
T7 sequence (O60674 532-1132 V617F limits assumed): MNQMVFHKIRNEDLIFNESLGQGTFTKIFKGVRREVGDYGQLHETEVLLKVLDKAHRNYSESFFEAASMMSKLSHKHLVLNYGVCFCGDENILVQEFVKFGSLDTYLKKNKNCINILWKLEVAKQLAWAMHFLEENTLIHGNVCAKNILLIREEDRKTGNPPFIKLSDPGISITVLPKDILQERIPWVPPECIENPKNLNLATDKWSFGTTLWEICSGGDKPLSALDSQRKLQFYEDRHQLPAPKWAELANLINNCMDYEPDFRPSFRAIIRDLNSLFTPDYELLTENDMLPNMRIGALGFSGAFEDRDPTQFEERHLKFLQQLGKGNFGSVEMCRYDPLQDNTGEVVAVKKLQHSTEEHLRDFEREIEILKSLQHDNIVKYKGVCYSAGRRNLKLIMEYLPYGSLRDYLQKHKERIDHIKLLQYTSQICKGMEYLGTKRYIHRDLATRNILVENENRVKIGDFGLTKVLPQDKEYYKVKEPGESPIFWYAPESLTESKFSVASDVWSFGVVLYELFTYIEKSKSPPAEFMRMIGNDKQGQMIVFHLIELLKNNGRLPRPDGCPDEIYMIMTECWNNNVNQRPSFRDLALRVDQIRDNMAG
Procedure, shortened: as §1

[8] = target: T8, GRK6 (Homo sapiens, UniProt P43250)
T8 construct: purchased Invitrogen (SelectScreen platform)
Procedure, shortened: as §1

[9] = target: T9, PKN1 (PRK1) (Homo sapiens, UniProt Q16512); details: estimated, abridged dose response curve, read-out: Kinase inhibitory activity EC50
T9 construct: purchased Invitrogen, Inc. (SelectScreen platform)
Procedure, shortened: as §1

[10] = target: T10, CLK1 (Homo sapiens, UniProt P49759); details: estimated, abridged dose response curve, read-out: Kinase inhibitory activity EC50
T10 construct: purchased Invitrogen (SelectScreen platform)
Procedure, shortened: as §1

[11] = target: T11, NEK1 (Homo sapiens, UniProt Q96PY6); details: estimated, abridged dose response curve, read-out: Kinase inhibitory activity EC50
T11 construct: purchased Invitrogen, Inc. (SelectScreen service)
Procedure, shortened: as §1

[12] = target: T12, AURKC (Aurora C) (Homo sapiens, UniProt Q9UQB9); details: estimated, abridged dose response curve, read-out: Kinase inhibitory activity EC50
T12 construct: purchased Invitrogen, Inc. (SelectScreen service)
T12 sequence (Q9UQB9 whole entry): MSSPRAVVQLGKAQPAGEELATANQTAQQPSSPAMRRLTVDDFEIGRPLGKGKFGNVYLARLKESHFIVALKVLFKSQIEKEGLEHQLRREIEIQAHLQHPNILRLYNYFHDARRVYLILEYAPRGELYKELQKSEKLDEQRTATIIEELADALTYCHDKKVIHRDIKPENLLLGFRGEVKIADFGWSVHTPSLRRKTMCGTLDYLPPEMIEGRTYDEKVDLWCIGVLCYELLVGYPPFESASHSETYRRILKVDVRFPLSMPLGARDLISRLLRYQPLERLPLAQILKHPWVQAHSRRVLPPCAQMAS
Procedure, shortened: as §1

[13] = target: T13, SRPK2 (Homo sapiens, UniProt P78362); details: estimated, abridged dose response curve, read-out: Kinase inhibitory activity EC50
T13 construct: purchased Invitrogen, Inc. (SelectScreen service)
T13 sequence (P78362 whole entry): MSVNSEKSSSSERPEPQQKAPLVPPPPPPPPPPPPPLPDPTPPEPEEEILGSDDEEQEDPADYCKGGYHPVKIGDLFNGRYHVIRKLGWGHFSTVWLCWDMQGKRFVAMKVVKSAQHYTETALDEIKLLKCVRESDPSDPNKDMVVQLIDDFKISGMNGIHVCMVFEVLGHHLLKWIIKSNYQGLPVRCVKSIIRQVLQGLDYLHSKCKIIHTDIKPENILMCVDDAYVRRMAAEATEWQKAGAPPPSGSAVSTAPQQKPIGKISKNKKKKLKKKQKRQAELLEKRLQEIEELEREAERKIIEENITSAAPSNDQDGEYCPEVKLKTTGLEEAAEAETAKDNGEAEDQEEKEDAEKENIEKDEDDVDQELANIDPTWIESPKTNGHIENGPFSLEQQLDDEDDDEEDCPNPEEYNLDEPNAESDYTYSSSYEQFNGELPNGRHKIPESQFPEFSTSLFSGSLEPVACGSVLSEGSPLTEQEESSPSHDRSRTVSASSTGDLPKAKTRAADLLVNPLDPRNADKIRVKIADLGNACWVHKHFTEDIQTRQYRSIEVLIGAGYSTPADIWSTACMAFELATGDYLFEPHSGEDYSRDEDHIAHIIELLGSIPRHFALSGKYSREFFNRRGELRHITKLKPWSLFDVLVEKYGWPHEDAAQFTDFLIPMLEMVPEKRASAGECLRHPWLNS
Procedure, shortened: as §1

[14] = target: T14, RPS6KA2 (RSK3) (Homo sapiens, UniProt Q15349); details: estimated, abridged dose response curve, read-out: Kinase inhibitory activity EC50
T14 construct: purchased Invitrogen, Inc. (SelectScreen platform)
Procedure, shortened: as §1

[15] = target: T15, YES1 (YES) (Homo sapiens, UniProt P07947); details: estimated, abridged dose response curve, read-out: Kinase inhibitory activity EC50
T15 construct: purchased Invitrogen (SelectScreen)
T15 sequence (P07947 whole entry): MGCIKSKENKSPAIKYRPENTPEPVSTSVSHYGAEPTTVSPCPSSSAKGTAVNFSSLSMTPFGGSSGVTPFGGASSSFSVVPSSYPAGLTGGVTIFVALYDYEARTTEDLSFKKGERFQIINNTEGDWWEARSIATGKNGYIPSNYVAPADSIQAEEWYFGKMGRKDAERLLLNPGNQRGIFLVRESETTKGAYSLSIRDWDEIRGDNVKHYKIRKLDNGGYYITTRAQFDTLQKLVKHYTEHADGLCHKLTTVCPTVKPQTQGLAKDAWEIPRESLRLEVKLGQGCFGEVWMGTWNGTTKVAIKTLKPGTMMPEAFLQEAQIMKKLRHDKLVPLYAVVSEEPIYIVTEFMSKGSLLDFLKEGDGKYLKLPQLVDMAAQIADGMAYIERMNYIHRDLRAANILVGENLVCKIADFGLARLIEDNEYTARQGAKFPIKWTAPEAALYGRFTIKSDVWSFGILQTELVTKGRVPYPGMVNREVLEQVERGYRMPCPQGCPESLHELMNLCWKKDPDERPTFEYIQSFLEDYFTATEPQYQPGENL
Procedure, shortened: as §1

[16] = target: T16, NEK4 (Homo sapiens, UniProt P51957); details: estimated, abridged dose response curve, read-out: Kinase inhibitory activity EC50
T16 construct: purchased Invitrogen, Inc. (SelectScreen service)
Procedure, shortened: as §1

[17] = target: T17, PRKCH (PKC eta) (Homo sapiens, UniProt P24723); details: estimated, abridged dose response curve, read-out: Kinase inhibitory activity EC50
T17 construct: purchased Invitrogen, Inc. (SelectScreen platform)
Procedure, shortened: as §1

[18] = target: T18, RET Y791F (Homo sapiens, UniProt P07949, Y791F); details: estimated, abridged dose response curve, read-out: Kinase inhibitory activity EC50
T18 construct: purchased Invitrogen (SelectScreen)
Procedure, shortened: as §1

[19] = target: T19, AKT2 (PKB beta) (Homo sapiens, UniProt P31751); details: estimated, abridged dose response curve, read-out: Kinase inhibitory activity EC50
T19 construct: purchased Invitrogen (SelectScreen platform)
T19 sequence (P31751 whole entry): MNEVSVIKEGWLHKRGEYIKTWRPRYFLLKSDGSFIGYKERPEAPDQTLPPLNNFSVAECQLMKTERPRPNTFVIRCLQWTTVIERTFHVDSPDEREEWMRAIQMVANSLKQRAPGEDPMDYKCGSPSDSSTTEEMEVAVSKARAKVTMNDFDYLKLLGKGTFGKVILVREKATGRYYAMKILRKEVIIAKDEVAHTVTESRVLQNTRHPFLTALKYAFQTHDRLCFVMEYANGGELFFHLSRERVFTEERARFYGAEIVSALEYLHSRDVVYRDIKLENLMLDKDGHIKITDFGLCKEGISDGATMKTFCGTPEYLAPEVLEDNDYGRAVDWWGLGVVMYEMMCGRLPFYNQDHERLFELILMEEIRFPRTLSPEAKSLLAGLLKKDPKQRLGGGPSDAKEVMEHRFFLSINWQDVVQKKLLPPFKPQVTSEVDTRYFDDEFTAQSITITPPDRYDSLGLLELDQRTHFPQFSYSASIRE
Procedure, shortened: as §1

[20] = target: T20, MET M1250T (Homo sapiens, UniProt P08581, M1250T); details: estimated, abridged dose response curve, read-out: Kinase inhibitory activity EC50
T20 construct: purchased Invitrogen (SelectScreen platform)
T20 sequence (P08581 25-1390 M1250T): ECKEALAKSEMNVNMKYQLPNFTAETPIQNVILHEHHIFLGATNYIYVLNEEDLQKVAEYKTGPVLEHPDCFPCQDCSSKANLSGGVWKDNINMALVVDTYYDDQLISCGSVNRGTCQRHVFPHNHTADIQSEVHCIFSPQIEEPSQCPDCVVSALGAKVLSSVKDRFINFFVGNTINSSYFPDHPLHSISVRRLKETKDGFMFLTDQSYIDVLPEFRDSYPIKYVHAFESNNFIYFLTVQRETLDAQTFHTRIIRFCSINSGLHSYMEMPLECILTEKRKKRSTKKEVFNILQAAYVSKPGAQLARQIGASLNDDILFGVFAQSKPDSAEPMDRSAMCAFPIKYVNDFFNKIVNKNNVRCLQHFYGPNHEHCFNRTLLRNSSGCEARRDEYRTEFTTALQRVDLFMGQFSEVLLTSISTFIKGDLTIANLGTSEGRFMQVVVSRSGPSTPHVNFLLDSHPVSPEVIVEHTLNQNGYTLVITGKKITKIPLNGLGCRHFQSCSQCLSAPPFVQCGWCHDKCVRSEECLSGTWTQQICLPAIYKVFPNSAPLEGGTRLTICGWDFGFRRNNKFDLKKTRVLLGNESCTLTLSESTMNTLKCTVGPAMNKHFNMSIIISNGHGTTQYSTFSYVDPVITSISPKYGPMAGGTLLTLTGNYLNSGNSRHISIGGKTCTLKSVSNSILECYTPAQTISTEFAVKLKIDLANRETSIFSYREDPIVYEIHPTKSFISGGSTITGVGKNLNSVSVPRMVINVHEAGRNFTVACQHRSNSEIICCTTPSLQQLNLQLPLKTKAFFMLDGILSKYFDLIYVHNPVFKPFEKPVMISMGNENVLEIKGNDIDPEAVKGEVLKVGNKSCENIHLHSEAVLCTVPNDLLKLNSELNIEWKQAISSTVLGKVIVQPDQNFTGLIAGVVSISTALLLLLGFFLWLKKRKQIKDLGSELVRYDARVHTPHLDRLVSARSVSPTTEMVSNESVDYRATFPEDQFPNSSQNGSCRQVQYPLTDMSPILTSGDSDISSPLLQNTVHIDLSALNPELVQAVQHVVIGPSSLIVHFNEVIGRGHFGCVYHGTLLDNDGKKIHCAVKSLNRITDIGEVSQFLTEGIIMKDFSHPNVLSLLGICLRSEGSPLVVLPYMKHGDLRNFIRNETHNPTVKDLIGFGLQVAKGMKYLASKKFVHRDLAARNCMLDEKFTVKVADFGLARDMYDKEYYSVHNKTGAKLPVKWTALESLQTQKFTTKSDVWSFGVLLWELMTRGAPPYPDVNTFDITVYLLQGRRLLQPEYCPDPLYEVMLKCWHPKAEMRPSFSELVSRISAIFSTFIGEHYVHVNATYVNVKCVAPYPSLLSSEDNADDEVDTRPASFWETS
Procedure, shortened: as §1

[21] = target: T21, NEK9 (Homo sapiens, UniProt Q8TD19); details: estimated, abridged dose response curve, read-out: Kinase inhibitory activity EC50
T21 construct: purchased Invitrogen, Inc. (SelectScreen service)
Procedure, shortened: as §1

[22] = target: T22, CAMK1D (CaMKI delta) (Homo sapiens, UniProt Q8IU85); details: estimated, abridged dose response curve, read-out: Kinase inhibitory activity EC50
T22 construct: purchased Invitrogen, Inc. (SelectScreen platform)
Procedure, shortened: as §1

[23] = target: T23, ABL1 T315I (Homo sapiens, UniProt P00519, T315I); details: estimated, abridged dose response curve, read-out: Kinase inhibitory activity EC50
T23 construct: purchased Invitrogen (SelectScreen platform)
Procedure, shortened: as §1

[24] = target: T24, PRKCD (PKC delta) (Homo sapiens, UniProt Q05655); details: estimated, abridged dose response curve, read-out: Kinase inhibitory activity EC50
T24 construct: purchased Invitrogen, Inc. (SelectScreen platform)
Procedure, shortened: as §1

[25] = target: T25, RAF1 (cRAF) Y340D Y341D (Homo sapiens, UniProt P04049, Y340D/Y341D); details: estimated, abridged dose response curve, read-out: Kinase inhibitory activity EC50
T25 construct: purchased Invitrogen, Inc. (SelectScreen platform)
Procedure, shortened: as §1

[26] = target: T26, MARK2 (Homo sapiens, UniProt Q7KZI7); details: estimated, abridged dose response curve, read-out: Kinase inhibitory activity EC50
T26 construct: purchased Invitrogen, Inc. (SelectScreen platform)
Procedure, shortened: as §1

SMILES: CN(C)CCCNc1ccc2ncn3c4ccc5[nH]ncc5c4c(=O)c1c23 [Compound (IV)]
- EC50 [1]: > 5 µM
- EC50 [2]: > 5 µM
- EC50 [3]: 3.79 µM
- EC50 [4]: > 5 µM
- EC50 [5]: > 5 µM
- EC50 [6]: > 5 µM
- EC50 [7]: > 5 µM
- EC50 ([8]; GRK6, estimated, abridged dose response curve, read-out: Kinase inhibitory activity EC50): > 5 µM
- EC50 [9]: 1.39 µM
- EC50 [10]: 444 nM
- EC50 [11]: > 5 µM
- EC50 [12]: > 5 µM
- EC50 [13]: > 5 µM
- EC50 [14]: 840 nM
- EC50 [15]: 1570 nM
- EC50 [16]: > 5 µM
- EC50 [17]: 2130 nM
- EC50 [18]: 627 nM
- EC50 [19]: > 5 µM
- EC50 [20]: > 5 µM
- EC50 [21]: 2930 nM
- EC50 [22]: 2.78 µM
- EC50 [23]: > 5 µM
- EC50 [24]: > 5 µM
- EC50 [25]: > 5 µM
- EC50 [26]: 3490 nM

SMILES: CCN(CC)CCNc1ccc2ncn3c4ccc(O)cc4c(=O)c1c23 [Symadex, 5-(2-(diethylamino)ethylamino)-8-hydroxy-6H-imidazo[4,5,1-de]acridin-6-one, reference compound]
- EC50 [1]: > 5 µM
- EC50 [2]: > 5 µM
- EC50 [3]: 2.97 µM
- EC50 [4]: 3.19 µM
- EC50 [5]: > 5 µM
- EC50 [6]: > 5 µM
- EC50 [7]: > 5 µM
- EC50 [8]: > 5 µM
- EC50 [9]: 4.75 µM
- EC50 [10]: 2180 nM
- EC50 [11]: 3.38 µM
- EC50 [12]: > 5 µM
- EC50 [13]: > 5 µM
- EC50 [14]: 460 nM
- EC50 [15]: > 5000 nM
- EC50 [16]: > 5 µM
- EC50 [17]: > 5000 nM
- EC50 [18]: 1240 nM
- EC50 [19]: > 5 µM
- EC50 [20]: > 5 µM
- EC50 [21]: > 5000 nM
- EC50 [22]: 4 µM
- EC50 [23]: > 5 µM
- EC50 [24]: > 5 µM
- EC50 [25]: > 5 µM
- EC50 [26]: 2020 nM
